According to US7855232B2, “Organoselenium compound for cancer chemoprevention” (LKT Laboratories, Inc., priority 2001, dated 2010):
Marks after values point to notes of the source that are not given here.

Experiments:
[1] = test system: Glutathione S-Transferase; assay: Glutathione S-transferase (GST) activity in tissue cytosol of treated mice, CDNB substrate; type: in vivo, Female A/J mice; details: for Ratio Test/con (GST): gavage; for GST act.: gavage in corn oil
Procedure: The activity of cytosolic was assayed according to the method of Habig et al. using 1-chloro-2,4-dinitrobenzene (CDNB) as the substrate. Habig et al, J. Biol. Chem. 249:7130-7139 (1974). The complete solution contains, in a total volume of 2.0 mL, 0.1 M phosphate buffer, pH 6.5, 5 mM glutathione, 1 mM CDNB, and 20 μL of the cytosol. The reaction was monitored at 340 nm in a Beckman Model DU65 UV-VIS spectrophotometer. Assays were performed at 30° C. Complete assay mixture without the cytosolic enzyme was used as the reference blank. Data as analyzed by the Student's “t” test and P values were obtained in comparison to the control.

[2] = test system: UDP-Glucuronosyltransferase (UDP-GT); assay: UDP-glucuronosyltransferase (UDP-GT) activity in liver microsomes of treated mice, o-aminophenol substrate; type: in vivo, Female A/J mice; details: for Ratio Test/con (UDP-GT): gavage; for UDP-GT activity (column head prints GSH conc.): gavage in corn oil
Procedure: Microsomal samples were assayed for enzymatic conjugation by modifying the procedure of Zakim et al., Methods of Biochemical Analysis, ed. David Glick, 21:1-37, (1973). using o-aminophenol as the substrate. The complete assay solution contains, in a total volume of 500 μl, 0.25 M phosphate buffer (pH 7.6), 0.002 M o-aminophenol, 0.05 M UDPGA, 0.125 M magnesium chloride and 100 μl microsomes. The mixture was incubated for 30 minutes. Reactions were stopped by the addition of 500 μl of TCA-sodium phosphate reagent. The precipitated protein was removed, 100 μl of 0.05% sodium nitrite was added to 950 μl of the supernatent solution and allowed to stand for 5 minutes. 100 μl of 0.5% ammonium sulfamate was added, after 5 minutes. 100 μl of 0.12% N-(-1-naphthyl)ethylenediamine dihydrochloride was added and incubated for 2 hours in the dark; and the difference in the optical density between the blanks and the samples were recorded at 555 nm in a Beckman model DU65 UV-VIS spectrophotometer. The UDP-GT activity was calculated using the extinction coefficient 29 mM-1 cm-1 for the coupled product.

GSH = assay: Glutathione (GSH) concentration in tissues of treated mice, HPLC; type: in vivo, Female A/J mice; details: for Ratio Test/con (GSH): gavage; for GSH conc.: gavage in corn oil
Procedure: GSH was quantitated by modification of the procedure Siller-Cepeda et al. Plant Cell Physiol. 32:1179-1185 (1991). Aliquots of tissue homogenates were mixed with equal volumes of 20% PCA containing 2 mM BPDS. Vortex, centrifuge at 7800×g for 15 minutes at 4° C. and 250 μl supernatant transferred into a microfuge tube containing 25 μl of γ-glu-glu as internal standard. The samples were carboxymethylated with 25 μl of 100 mM iodoacetic acid dissolved in 0.2 mM m-cresol purple sodium salt solution. The pH of the solution was adjusted to 9-10 by adding 350 μl of KOH (2M)-KHCO3 (2.4 M) mixture and incubated in the dark for 15 minutes. After carboxymethylation, the samples were derivatized with 500 μl of 1% dinitrofluorobenzene (DNFB) and kept in the dark at 4° C. overnight. The samples were centrifuged at 13,000×g for 15 minutes, filtered through 0.2 μm filter, and were analyzed with a SHIMADZU two-pump gradient HPLC system. Samples were injected by a SHIMADZU SIL-10AV Autoinjector onto a Varian 3-aminopropyl MICROSORB-MV column (4.6×250 mm) operated at ambient temperature with a flow rate of 1 ml/min. Absorbance of the dinitrophenyl derivatives was monitored at 365 nm. The amount of GSH was calculated from a standard curve using γ-glu-glu as internal standard.

aberrant crypts (AC) = assay: Inhibition of DMH-induced aberrant crypt (AC) formation in colon; type: in vivo, Female CF1 mice; details: high dose 0.04 mmol/kg body weight, gavage, without DMH
Text: Precancerous lesions called aberrant crypts (AC) are used as a marker for colon carcinogenesis. Mice and rats, when exposed to colon-specific carcinogen, develop preneoplastic changes in colon crypts which leads to malignancy through dysplasia-carcinoma sequence. […] McLellan et al., Cancer Res. 48:6183-6186 (1988); McLellan et al., Cancer Res. 48:2311-2315 (1988).
The effect of colon-specific carcinogenesis is typically seen in the induction of AC formation in less than two weeks. AC formation is dose dependent and can be quantitated without elaborate instrumentation. In view of the short time-frame required to get quantifiable results, this bio-assay is a useful prescreening tool for the evaluation of chemopreventative efficacy of compounds that are effective against colon cancer. The protocol for aberrant crypts is shown below:
Female CF1 mice, 3 weeks of age, were purchased from Harlan Sprague-Dawley, Indianapolis, 1N. They were housed, 5 mice per cage, in temperature and humidity-controlled animal quarters with 12 hours light/dark cycle and fed AIN 76A semipurified diet until the ent of the experiment. Water was given ad libitim. The animals were separated into experimental and control groups. The test compounds 0.03-0.04 mmol/kg body weight dissolved in 0.3 mL corn oil, were given by gavage one per day for 8 days. One hour after the inhibitors administration on the 4th and 8th days, 0.4 mg of DMH in 0.2 mL of 0.001 M EDTA, adjusted to pH 6.5 with sodium bicarbonate, was given by gavage. Starting on the 9th day, the inhibitors were given once every other day for an additional 3 weeks. This regimen of inhibitor administration ensures the coverage both the initiation and post initiation periods of carcinogen exposure.
At the end of the 3 week period, the animals were sacrificed and the colons removed. The starting and terminating weights of the animals were recorded. The procedures for the determination of aberrant crypts were those reported by Bird (Cancer Letters 37:147-151 (1987)). The mouse colon including the caecum was removed, rinsed with PBS, and opened longitudinally. The colon contents was removed by washing with PBS. The colon was spread mucosal side up on a piece of filter paper and fixed in buffered formalin overnight. It was then stained with 0.2% methylene blue in PBS for 60 min. The AC foci was read under light microscope. The AC are topographically distinguished by their increased size, increased pericryptal zone, and thicker and deeply stained epithelial lining compared to normal crypts. The number of foci and AC in the colorectal and caecal parts of the colon were recorded separately. The significance of the data was determined by the analysis of variance method. The significance of the incidence of aberrant crypts bearing animals was analyzed by the X^2 test. The aberrant crypts were examined histologically to verify the dysplastic nature of the changes in animals treated with carcinogens and those treated with carcinogens and inhibitors.

[3] = colon, dose 0.02 mmol/Kg body weight
[4] = colon, dose 0.04 mmol/Kg body weight
[5] = forestomach, dose 0.02 mmol/Kg body weight
[6] = forestomach, dose 0.04 mmol/Kg body weight
[7] = liver, dose 0.02 mmol/Kg body weight
[8] = liver, dose 0.04 mmol/Kg body weight
[9] = lung, dose 0.02 mmol/Kg body weight
[10] = lung, dose 0.04 mmol/Kg body weight
[11] = small intestinal mucosa, dose 0.02 mmol/Kg body weight
[12] = small intestinal mucosa, dose 0.04 mmol/Kg body weight

## [Se]=C=NCc1ccc(CN=C=[Se])s1 [(6) TDMISC, thienyl-2,5-di-methylene isoselenocyanate]
[1]; [3]
  Ratio Test/con (GST): 1.12
  GST act.: 0.73 ± 0.026 ^g μmol/min mg protein
[1]; [4]
  Ratio Test/con (GST): 1.14
  GST act.: 0.74 ± 0.04 ^f μmol/min mg protein
[1]; [5]
  Ratio Test/con (GST): 0.93
  GST act.: 1.03 ± 0.20 μmol/min mg protein
[1]; [6]
  Ratio Test/con (GST): 1.11
  GST act.: 1.23 ± 0.35 μmol/min mg protein
[1]; [7]
  Ratio Test/con (GST): 1.90
  GST act.: 2.43 ± 0.46 ^e μmol/min mg protein
[1]; [8]
  Ratio Test/con (GST): 2.53
  GST act.: 3.24 ± 0.39 ^e μmol/min mg protein
[1]; [9]
  Ratio Test/con (GST): 1.29
  GST act.: 0.44 ± 0.04 ^f μmol/min mg protein
[1]; [10]
  Ratio Test/con (GST): 1.73
  GST act.: 0.59 ± 0.29 μmol/min mg protein
[1]; [11]
  Ratio Test/con (GST): 2.45
  GST act.: 0.54 ± 0.11 ^e μmol/min mg protein
[1]; [12]
  Ratio Test/con (GST): 2.41
  GST act.: 0.53 ± 0.03 ^c μmol/min mg protein
[2]; dose 0.02 mmol/Kg body weight
  Ratio Test/con (UDP-GT): 1.50
  UDP-GT activity (column head prints GSH conc.): 6.08 ± 0.76 ^d nmol/min/mg protein
[2]; dose 0.04 mmol/Kg body weight
  Ratio Test/con (UDP-GT): 1.49
  UDP-GT activity (column head prints GSH conc.): 7.98 ± 2.49 nmol/min/mg protein
GSH; [7]
  Ratio Test/con (GSH): 0.95
  GSH conc.: 3.38 ± 1.11 μmol/gm tissue weight
GSH; [8]
  Ratio Test/con (GSH): 1.49
  GSH conc.: 5.29 ± 1.09 μmol/gm tissue weight
GSH; [11]
  Ratio Test/con (GSH): 1.07
  GSH conc.: 2.26 ± 1.87 μmol/gm tissue weight
GSH; [12]
  Ratio Test/con (GSH): 1.76
  GSH conc.: 3.71 ± 0.31^d μmol/gm tissue weight
Aberrant crypts (AC)
  % animals: 0.0%
  AC/Colon: 0.00
  AC/Foci: 0.00
  ACF/Colon: 0.00
  Total AC: 0
  Total ACF: 0

## N#C[Se]C([Se]C#N)c1cccs1 [(1) TMSC, 2-thienyl methylene selenocyanate]
other
  melting point: 48 to 50 °C
